Measurements from patent US9546401B2, “Assays and methods for selecting a treatment regimen for a subject with depression” (The General Hospital Corporation, priority 2011, dated 2017).
Where two headings read alike, the source gives them in different places. Marks after values point to notes of the source that are not given here.

System: MDD patients carrying the indicated biomarkers
Settings: for Effect on change in HAMD-28 score / Effect on change in HAMD-17 score: Pooled phases
Procedure: Folate levels are classified as either low (<=2.5 ng/ml) or normal; and homocysteine levels as either normal or elevated (>=[…]). The presence or absence of at least one […] allele for the MTHFR gene are entered as a dichotomous variable (present or absent). […] Using folate as an example predicator, the presence or absence of a low serum-folate level along with treatment assignment can be entered in a 2×2, factorial ANOVA, using depression improvement scores (baseline minus endpoint HAM-D-17 scores) as the dependant variable. […] Similar analyses (i.e. separate 2×2 ANOVA's) can be performed substituting the presence of low folate levels for the presence of other predictors as described herein. Similarly, the effect of other predictors can be indicated by the interaction term representing the potential modulating influence of those variables.
The efficacy effect is determined by measuring the mean change in the HAMD-17 score and HAMD-28 score by the end of Phase I and Phase II, as compared to the baseline.

[1] = BMI < 30 kg/m^2 and HNE-His < median
[2] = BMI < 30 kg/m^2 and SAM/SAH >= median
[3] = BMI >= 30 kg/m^2 and HNE-His >= median
[4] = BMI*treat (interaction of BMI with the treatment)
[5] = MTHFR 677 CC and BMI < 30 kg/m^2
[6] = MTHFR 677 CT or TT and BMI >= 30 kg/m^2
[7] = MTHFR 677 CT or TT and HNE-His >= median
[8] = MTR 2756 AA and BMI < 30 kg/m^2
[9] = MTR 2756 AA and HNE-His < median
[10] = MTR 2756 AA and MTRR 66 AA and SAM/SAH >= median
[11] = MTR 2756 AA and SAM/SAH >= median
[12] = MTR 2756 AG or GG and BMI >= 30 kg/m^2
[13] = MTR 2756 AG or GG and MTRR 66 AG or GG
[14] = MTR 2756 AG or GG and MTRR 66 AG or GG and HNE-His >= median
[15] = MTRR 66 AA and SAM/SAH >= median
[16] = MTRR 66 AG or GG and HNE-His >= median
[17] = SAM/SAH < median and HNE-His >= median
[18] = SAM/SAH >= median and HNE-His < median

CN1c2c(nc(N)[nH]c2=O)NC[C@@H]1CNc1ccc(C(=O)N[C@@H](CCC(=O)O)C(=O)O)cc1 [6(S)-5-MTHF, 6(S)-5-methyltetrahydrofolate]
Effect on change in HAMD-28 score (BMI < 25): −1.018
Effect on change in HAMD-17 score [1]: 4.738
Effect on change in HAMD-28 score [1]: 4.253
Effect on change in HAMD-17 score [2]: 2.583
Effect on change in HAMD-28 score [2]: 2.906
Effect on change in HAMD-17 score (BMI >= 30 kg/m^2): −4.600
Effect on change in HAMD-28 score (BMI >= 30 kg/m^2): −4.660
Effect on change in HAMD-17 score [3]: −5.420
Effect on change in HAMD-28 score [3]: −5.996
Effect on change in HAMD-17 score (BMI >= 30 kg/m^2 and SAM/SAH < median): −7.302
Effect on change in HAMD-28 score (BMI >= 30 kg/m^2 and SAM/SAH < median = 2.71 (plasma)): −7.572
Effect on change in HAMD-17 score [4]: −0.233
Effect on change in HAMD-28 score [4]: −0.270
Effect on change in HAMD-17 score [5]: 1.356
Effect on change in HAMD-28 score [5]: −0.234
Effect on change in HAMD-17 score (MTHFR 677 CC and HNE-His < median): −1.050
Effect on change in HAMD-28 score (MTHFR 677 CC and HNE-His < median = 3.28 (plasma)): −1.340
Effect on change in HAMD-17 score [6]: −8.090
Effect on change in HAMD-28 score [6]: −9.884
Effect on change in HAMD-17 score [7]: −9.446
Effect on change in HAMD-28 score [7]: −9.865
Effect on change in HAMD-17 score (MTR 2756 AA): −0.590
Effect on change in HAMD-28 score (MTR 2756 AA): −0.047
Effect on change in HAMD-17 score [8]: 3.196
Effect on change in HAMD-28 score [8]: 3.352
Effect on change in HAMD-17 score [9]: 1.319
Effect on change in HAMD-28 score [9]: 2.085
Effect on change in HAMD-17 score (MTR 2756 AA and MTRR 66 AA): −1.373
Effect on change in HAMD-28 score (MTR 2756 AA and MTRR 66 AA): −3.032
Effect on change in HAMD-17 score (MTR 2756 AA and MTRR 66 AA and HNE-His < median): 0.466
Effect on change in HAMD-28 score (MTR 2756 AA and MTRR 66 AA and HNE-His < median = 3.28 (plasma)): −2.221
Effect on change in HAMD-17 score [10]: −3.98*
Effect on change in HAMD-28 score [10]: −3.74*
Effect on change in HAMD-17 score [11]: 0.054
Effect on change in HAMD-28 score [11]: −0.071
Effect on change in HAMD-17 score [12]: −11.714
Effect on change in HAMD-28 score [12]: −14.433
Effect on change in HAMD-17 score (MTR 2756 AG or GG and HNE-His >= median): −8.072
Effect on change in HAMD-28 score (MTR 2756 AG or GG and HNE-His >= median = 3.28 (plasma)): −9.508
Effect on change in HAMD-17 score [13]: −6.976
Effect on change in HAMD-28 score [13]: −9.348
Effect on change in HAMD-17 score [14]: −7.942
Effect on change in HAMD-28 score [14]: −10.241
Effect on change in HAMD-17 score (MTR 2756 AG or GG and MTRR 66 AG or GG and SAM/SAH < median): −7.64*
Effect on change in HAMD-28 score (MTR 2756 AG or GG and MTRR 66 AG or GG and SAM/SAH < median = 2.71 (plasma)): −11.62*
Effect on change in HAMD-17 score (MTR 2756 AG or GG and SAM/SAH < median): −5.583
Effect on change in HAMD-28 score (MTR 2756 AG or GG and SAM/SAH < median = 2.71 (plasma)): −11.683
Effect on change in HAMD-17 score (MTR 2756 AG/GG): −5.677
Effect on change in HAMD-28 score (MTR 2756 AG/GG): −8.243
Effect on change in HAMD-17 score (MTRR 66 AA and HNE-His < median): 2.575
Effect on change in HAMD-28 score (MTRR 66 AA and HNE-His < median = 3.28 (plasma)): −2.626
Effect on change in HAMD-17 score [15]: −2.978
Effect on change in HAMD-28 score [15]: −1.221
Effect on change in HAMD-17 score [16]: −4.850
Effect on change in HAMD-28 score [16]: −6.582
Effect on change in HAMD-17 score (MTRR 66 AG or GG and SAM/SAH < median): −5.879
Effect on change in HAMD-28 score (MTRR 66 AG or GG and SAM/SAH < median = 2.71 (plasma)): −6.579
Effect on change in HAMD-17 score [17]: −9.898
Effect on change in HAMD-28 score [17]: −9.500
Effect on change in HAMD-17 score [18]: 2.107
Effect on change in HAMD-28 score [18]: 2.413
Effect on change in HAMD-28 score (SAM/SAH*treat, first line under HAMD28): 0.882
Effect on change in HAMD-17 score (baseHAMD-17*treat (interaction of base HAMD-17 with the treatment)): −0.025
improvement in HDRS-28 or CGI-S (at least one T allele (CT or TT) at MTHFR 677 versus no T allele, + SSRI): greater degree of improvement
improvement in HAMD-28 or CGI-S (obese (BMI at least 30 kg/m^2) versus non-obese patients, + SSRI): greater degree of improvement
mean change in HAMD-28 (patients carrying at least one G variant in the MTR gene only): about −8.2
mean change in HAMD-28 (patients carrying both MTHFR T and MTR G variants): about −23.3
